Results: patent publication US9199940B2, “Crystalline forms and processes for the preparation of phenyl-pyrazoles useful as modulators of the 5-HT2A serotonin receptor” (Arena Pharmaceuticals, Inc., priority 2006, dated 2015)

Assay: dynamic vapor sorption (DVS) scan of crystalline forms
Format: physicochemical
Settings: up to 95% relative humidity
Text: FIG. 4 depicts a dynamic vapor sorption (DVS) scan for crystalline Form I of Compound 7 of the invention (VTI dynamic vapor sorption analyzer).
FIG. 8 depicts a dynamic vapor sorption (DVS) scan for crystalline Form I Compound 9 of the invention (VTI dynamic vapor sorption analyzer).

DVS hygroscopicity: FIG. 4: Non-hygroscopic;
SMILES: COc1cccc(C(=O)Nc2ccc(OCCN3CCOCC3)c(-c3ccnn3C)c2)c1 [Compound 7 Form I, 4-(2-(4-(3-methoxybenzamido)-2-(1-methyl-1H-pyrazol-5-yl)phenoxy)ethyl)morpholin-4-ium chloride]
